# Data from patent US20160304611A1, “COMBINATION THERAPY FOR TREATING ADULT PATIENTS WITH RELAPSED/REFRACTORY CD22+ B-CELL ACUTE LYMPHOBLASTIC LEUKEMIA” (Immunomedics, Inc., priority 2015, published 2016).
# Values joined by “and” are separate entries in the source; they are usually repeats but may differ in a detail not shown here. Equal entries are not always repeated.
# What was measured:
# Leukemic blasts = assay: Minimal residual disease (MRD) evaluated by flow cytometry on bone marrow samples; assay type: in vivo, human
# Description: FIG. 1A. Minimal residual disease (MRD) evaluated by flow cytometry. All patients were monitored for CD22 expression before treatment and then for phenotypic MRD. Leukemic blasts were evaluated using a 8 colors panel including antibodies to CD45, CD19, CD10, CD34, CD38, CD58, CD20 and CD22. MRD was assessed, concomitantly to responses, between 4 and 6 weeks after beginning the salvage regimen using flow cytometry (FACS CANTO II, BD, Biosciences, San Jose, Calif.) performed on bone marrow samples. Two different anti-CD22 antibodies were used. The RFB4 antibody (PE conjugated, Invitrogen, Camarillo, Calif.) and epratuzumab bind competitively to CD22, meaning that in the presence of epratuzumab, RFB4 binding is blocked. By contrast, the SHCL-1 antibody (PE or PerCp-Cy5.5 conjugated, BD Biosciences, San Jose, Calif.) binds to a non-crossblocking epitope and can be used to assess the modulation of the CD22 antigen on the blasts surface. […] Case 1: An example of positive MRD. Leukemic blasts were both CD22-RFB4 and CD22-SHCL-1 positive before treatment. After treatment, the percentage of blasts is estimated at 0.05%.
# FIG. 1B. Minimal residual disease (MRD) evaluated by flow cytometry. All patients were monitored for CD22 expression before treatment and then for phenotypic MRD. Leukemic blasts were evaluated using a 8 colors panel including antibodies to CD45, CD19, CD10, CD34, CD38, CD58, CD20 and CD22. MRD was assessed, concomitantly to responses, between 4 and 6 weeks after beginning the salvage regimen using flow cytometry (FACS CANTO II, BD, Biosciences, San Jose, Calif.) performed on bone marrow samples. Two different anti-CD22 antibodies were used. The RFB4 antibody (PE conjugated, Invitrogen, Camarillo, Calif.) and epratuzumab bind competitively to CD22, meaning that in the presence of epratuzumab, RFB4 binding is blocked. By contrast, the SHCL-1 antibody (PE or PerCp-Cy5.5 conjugated, BD Biosciences, San Jose, Calif.) binds to a non-crossblocking epitope and can be used to assess the modulation of the CD22 antigen on the blasts surface. […] Case 2: An example of “negative” MRD. Leukemic blasts (CD10/CD20 negative) are both CD22-RFB4 and CD22-SHCL-1 positive before treatment. After treatment, MRD was <10^−5.
# [1] = tested on: relapsed/refractory CD22+B-ALL; assay: Prospective Phase 2 study of epratuzumab added to vincristine and dexamethasone (salvage chemoimmunotherapy); assay type: in vivo, human
# Description: Here, we have evaluated the addition of epratuzumab (hLL2, 360 mg/m^2/d iv on days 1, 8, 15, and 22) to the combination of vincristine (2 mg iv, days 1, 8, 15 and 22) and dexamethasone (40 mg/d po, days 1, 8, 15, and 22) in patients >55 years old, with relapsed/refractory CD22+B-ALL. Dexamethasone was administered before epratuzumab administration+paracetamol 1 g as prophylaxis in order to prevent epratuzumab infusion reactions. Also, intrathecal injections of methotrexate 15 mg, aracytine 40 mg, and depomedrol 40 mg were recommended on days 1 and 8.
# This prospective Phase 2 study was conducted at 6 French centers and was approved by the Brest ethical committee and the clinical trial department of the “Agence Française de Sécurité Sanitaire des Produits de Santé” (AFSSAPS). This trial is registered as NCT01219816. Epratuzumab was supplied by Immunomedics, Inc. (Morris Plains, N.J., USA). Written informed consent was obtained from each patient.
# The main objective of the study was the CR rate defined by patients reaching CR+CR without platelets recovery (CRi). CR was defined as <5% marrow blasts, neutrophils >1×10^9/L, platelets >100×10^9/L and no evidence of extramedullary disease. CRi was defined similarly but without recovery of platelets counts. Partial response (PR) was defined as a decrease of >50% of blasts in the bone marrow.
# (§1) Responses were evaluated between 4 and 6 weeks post-salvage regimen. Patients in response (CR, CRi or PR) were allowed to receive a second cycle as consolidation. Toxicity was evaluated according to the NCI-CTC criteria version 4. Cytologic, phenotypic, karyotype and BCR-ABL1 (for Ph+B-ALL) molecular analyses were performed on blood samples and/or BM aspirates by standard methods.
# Over a three year period, 26 patients were enrolled. One case was excluded because of progression before receiving the treatment, while 2 younger patients were inappropriately included (person in fourth relapse and a person with refractory second relapse). All the 25 treated patients were considered for analysis.
# [2] = Toxicity evaluated according to the NCI-CTC criteria version 4; assay type: in vivo, human
# Description: as §1
# CD22 = CD22 expression on blasts after treatment, flow cytometry with RFB4 and SHCL-1 anti-CD22 antibodies; assay type: cell-based, human; conditions: non-responders and three patients with detectable MRD
# Description: (§2) FIG. 1A. Minimal residual disease (MRD) evaluated by flow cytometry. All patients were monitored for CD22 expression before treatment and then for phenotypic MRD. Leukemic blasts were evaluated using a 8 colors panel including antibodies to CD45, CD19, CD10, CD34, CD38, CD58, CD20 and CD22. MRD was assessed, concomitantly to responses, between 4 and 6 weeks after beginning the salvage regimen using flow cytometry (FACS CANTO II, BD, Biosciences, San Jose, Calif.) performed on bone marrow samples. Two different anti-CD22 antibodies were used. The RFB4 antibody (PE conjugated, Invitrogen, Camarillo, Calif.) and epratuzumab bind competitively to CD22, meaning that in the presence of epratuzumab, RFB4 binding is blocked. […]
# as §2, with “1B.” for “1A.”, “samples.” for “samples. Two different anti-CD22 antibodies were used. The RFB4 antibody (PE conjugated, Invitrogen, Camarillo, Calif.) and epratuzumab bind competitively to CD22, meaning that in the presence of epratuzumab, RFB4 binding is blocked.”
# [3] = in subjects; cited from earlier work
# [4] = combination with vincristine and dexamethasone, 25 treated patients
# [5] = combination with vincristine and dexamethasone, of 25 treated patients
# [6] = combination with vincristine and dexamethasone, six Ph+B-ALL patients
# [7] = combination with vincristine and dexamethasone, unclear etiology
substance,measurement,setting,value
"epratuzumab: anti-CD22 humanized antibody (Immunomedics, Inc.); given here with vincristine and dexamethasone",percentage of blasts after treatment,"Leukemic blasts; FIG. 1A, Case 1, example of positive MRD",0.05%
same,MRD after treatment,"Leukemic blasts; FIG. 1B, Case 2, example of negative MRD",< 10^−5
same,number of CR/CRi patients with undetectable MRD,"Leukemic blasts; combination with vincristine and dexamethasone, 5 CR/CRi patients",2
same,"MRD evaluated by cytometry, individual responder patient","Leukemic blasts; combination with vincristine and dexamethasone, CR/CRi patient with detectable MRD",1.2%
same,"MRD evaluated by cytometry, individual responder patients","Leukemic blasts; combination with vincristine and dexamethasone, CR/CRi patients with detectable MRD",5×10^−4 and 7×10^−3
same,CR+CRi rate,[1]; [4],20%
same,PR rate,[1]; [4],20%
same,patients who died during treatment due to progression of the disease,[1]; [4],Two
same,number of patients with CR,[1]; [5],4
same,number of patients with CRi,[1]; [5],1
same,number of patients with PR,[1]; [5],5
same,median leukemia-free survival,"[1]; combination with vincristine and dexamethasone, patients achieving CR/CRi, range 1-8",3.8 months
same,number of patients with CR among Ph+B-ALL patients,[1]; [6],2
same,number of patients with PR among Ph+B-ALL patients,[1]; [6],1
same,1-year OS,"[1]; combination with vincristine and dexamethasone, whole cohort N=25, estimated",13+7%
same,median overall survival (OS),"[1]; combination with vincristine and dexamethasone, whole cohort N=25, range 0.5-43",4 months
same,overall response rate,"[1]; epratuzumab 360 mg/m2/d iv + vincristine 2 mg iv + dexamethasone 40 mg/d po, days 1, 8, 15, 22, 25 treated patients, evaluated 4-6 weeks post-salvage",40%
same,tolerability of salvage regimen,"[2]; combination with vincristine and dexamethasone, large majority of grade 3/4 toxicities were expected pancytopenia",generally tolerated well
same,"grade-3 renal toxicity, number of cases",[2]; [7],One
same,"grade-4 hypertriglyceridemia, number of cases",[2]; [7],one
same,"grade-3 allergic toxicity, number of cases",[2]; related to the first epratuzumab infusion,One
same,"targeting of CD22 on residual blasts (RFB4 negative, SHCL-1 positive)",CD22,persistent targeting of epratuzumab on blasts without loss of the CD22/epratuzumab complex from the cell surface
veltuzumab: humanized IgG1 antibody against CD20,immunogenicity compared with rituximab,[3],less immunogenic
